Assays:
Assay type in all cases: cell-based, C57BL/6 mice
[1] = tested on: plasmacytoid dendritic cells; assay: IL-10 secretion from pDC induced with various toll-like receptor agonists, ELISA (Example 3); settings: pDC stimulated with ODN1826 (1 μg/ml), 24 hours; vs non-treatment
Method: Ligands listed in Table 2 were used as the toll-like receptor agonist. […] The separated cells (5×10^5 cells/ml) were inoculated into a 48 well plate. ODN1826 (1 μg/ml) was applied thereto and the cells were cultured for 24 hours. Then, supernatant was separated. The secretion pattern of the immunosuppressive cytokine IL-10 was then checked by ELISA (enzyme linked immunosorbent assay). In this connection, in order to check the effect from the treatment using the toll-like receptor agonist, the case in which the toll-like receptor agonist was not applied thereto during the differentiation of the immature dendritic cells is shown as Comparative Example (non).

[2] = tested on: immature dendritic cells; assay: Differentiation of immature dendritic cells into plasmacytoid dendritic cells with toll-like receptor agonist (Example 1); settings: Pam3 100 to 500 ng/ml on third day of Flt3L differentiation; treatment vs non-treatment
Method: Specifically, thigh bone marrow samples were collected from C57BL/6 mice using bone marrow collecting syringes. The collected bone marrow was washed with phosphate buffered saline (PBS), and red blood cells were removed therefrom using ammonium chloride. Separated cells (3×10^6 cells/well) were inoculated in a 6-well plate. Then, 1 ml of RPMI 1640 containing 10% FBS (fetal bovine serum), 2 mM L-glutamine, 100 U/ml penicillin/streptomycin, 50 μM mercaptoethanol, 0.1 mM non-essential amino acid, 1 mM sodium pyruvate and 250 ng/ml FLT3L was added thereto to initiate culture and differentiation of the cells. On the third day after the start of differentiation, Pam3 was applied thereto at a concentration of 100 to 500 ng/ml. On 5 days from the start of differentiation, 1 ml of the RPMI 1640 was further supplemented thereto. The cells were cultured for 8 days. […] Further, in the case (TLRs-pDC) when the immature dendritic cells were treated with the toll-like receptor agonist, the ratio of the number of plasmacytoid dendritic cells obtained after the eighth day to the number of the initial immature dendritic cells was measured. […]

[3] = tested on: plasmacytoid dendritic cells; assay: Cytokine secretion from pDC according to treatment time of toll-like receptor agonist, ELISA (Example 4); settings: agonist applied at start of differentiation (0 day treatment) or 3 days thereafter; ODN1826 24 hours; vs no-treatment
From the text: Differentiation into the plasmacytoid dendritic cells was induced by the same method as in Example 1 in order to check the immune tolerance inducing effect of the toll-like receptor agonist according to the treatment time point. Further, the toll-like receptor agonists were applied at the start time of the differentiation (0-day treatment) and were applied on 3 days after the start of differentiation (3 day treatment). After the total 8 days culturing, the plasmacytoid dendritic cells were isolated therefrom at a purity equal to or greater than 85% using a plasmacytoid dendritic cell separation kit (Miltenyi Biotec, Auburn, Calif.) and a magnetic cell sorting system (Vario MACS: Miltenyi Biotec, Auburn, Calif.). The separated cells (5×10^5 cells/ml) were inoculated into a 48 well plate. ODN1826 (1 μg/ml) was applied thereto and the cells were cultured for 24 hours. Then, supernatant was separated. The secretion pattern of the cytokine was then checked by ELISA (enzyme linked immunosorbent assay). In this connection, in order to check the effect from the treatment using the toll-like receptor agonist, the case in which the toll-like receptor agonist was not applied thereto during the differentiation of the immature dendritic cells is shown as Comparative Example (no-treatment, non).

Row | Compound | expression level of IL-10 from pDC differentiated via treatment with the agonist [1] | differentiation efficiency into plasmacytoid dendritic cells [2] | expression level of IFN-α [3] | expression level of IFN-β [3] | expression level of IL-10 [3] | expression level of IL-12p70 [3] | expression level of TNF-α [3]
1 | CC(C)Cn1cnc2c(N)nc3ccccc3c21 [TLR7 agonist, Imiquimod] | significantly increased | – | – | – | – | – | –
2 | LPS [TLR4 agonist] | significantly increased | – | – | – | – | – | –
3 | Pam3 [TLR2 agonist] | significantly increased | no difference | inhibited | inhibited | significantly increased | inhibited | inhibited
